Laboratory results from patent US11136409B2, “Compositions and methods for identification, assessment, prevention, and treatment of AML using USP10 biomarkers and modulators” (Dana-Farber Cancer Institute, Inc., priority 2016, dated 2021).

How the values were obtained:
USP7 = USP7 (Homo sapiens, UniProt Q93009); test: USP7 IC50 of HBX19818 analogs (Table 9); format: biochemical; details: read-out: USP7 IC50 +/− SEM
[1] = target: T1, human USP10 (residues 376-798) (Homo sapiens, UniProt Q14694); test: In vitro USP10 activity assay (Ubiquitin-AMC); format: biochemical; details: ubiquitin-AMC as substrate; purified enzyme; read-out: USP10 biochemical IC50
T1 construct: A construct of human USP10 covering residues 376-798 in the pET28a vector; His-tag (cleaved yes); made in house; host or cells: E. coli BL21 (DE3)
T1 sequence (Q14694 376-798): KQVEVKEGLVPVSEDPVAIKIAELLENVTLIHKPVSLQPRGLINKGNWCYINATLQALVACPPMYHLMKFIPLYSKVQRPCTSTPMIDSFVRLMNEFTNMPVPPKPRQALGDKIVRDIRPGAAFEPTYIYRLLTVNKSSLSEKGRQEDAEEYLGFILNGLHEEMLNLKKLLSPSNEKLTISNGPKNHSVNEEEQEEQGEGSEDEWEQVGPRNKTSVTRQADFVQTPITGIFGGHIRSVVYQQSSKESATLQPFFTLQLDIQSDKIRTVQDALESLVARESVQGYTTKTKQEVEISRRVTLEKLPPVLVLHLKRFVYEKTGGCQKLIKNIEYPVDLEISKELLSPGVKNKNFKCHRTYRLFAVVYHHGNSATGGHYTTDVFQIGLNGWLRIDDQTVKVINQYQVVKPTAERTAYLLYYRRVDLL
Experimental: Protein expression and purification. A construct of human USP10 covering residues 376-798 in the pET28a vector was over-expressed in E. coli BL21 (DE3) in TB medium in the presence of […] of kanamycin. Cells were grown at 37° C. to an OD of 0.8, cooled to 17° C., induced with 500 μM isopropyl-1-thio-D-galactopyranoside, incubated overnight at 17° C., collected by centrifugation, and stored at −80° C. Cell pellets were sonicated in buffer A (50 mM HEPES (pH 7.5), 300 mM NaCl, 10% glycerol, 10 mM Imidazole, and 3 mM BME) and the resulting lysate was centrifuged at 30,000×g for 30 min. Ni-NTA beads (Qiagen) were mixed with lysate supernatant for 30 min and washed with buffer A. Beads were transferred to an FPLC-compatible column and the bound protein was washed with 15% buffer B (50 mM HEPES (pH 7.5), 300 mM NaCl, 10% glycerol, 300 mM Imidazole, and 3 mM BME) and eluted with 100% buffer B. Thrombin was added to the eluted protein and incubated at 4° C. overnight. The sample was then passed through a HiPrep 26/10 desalting column (GE Healthcare) pre-equilibrated with buffer A without imidazole, and the eluted protein was subjected to a second Ni-NTA step to remove His-tag and Thrombin. The eluent was concentrated and passed through a Superdex® 200 10/300GL column (GE Healthcare) in a buffer containing 20 mM HEPES (pH 7.5), 150 mM NaCl, and 1 mM DTT. Fractions were pooled, concentrated to 20 mg/ml, and frozen at −80° C.
In vitro USP10 activity assay. Recombinant USP10, residues 376-798, was tested for its activity in a Ubiquitin-AMC assay in presence or absence of inhibitors. For this assay, 10 nM USP10 were pre-incubated with different concentrations of inhibitors or DMSO as a control in 50 mM HEPES pH7.6, 0.5 mM EDTA, 11 uM ovalbumin, and 5 mM DTT. The reaction was incubated for 6 hours at room temperature prior to the addition of 2 uM Ubiquitin-AMC (Boston Biochem) substrate. The initial rate of the reaction was measured by collecting fluorescence data at one minute intervals over 30-minute period using a CLARIOstar® fluorescence plate reader at excitation and emission wavelength of 345 and 445 nm, respectively. The calculated initial rate values were plotted against inhibitor concentrations to determine IC50 values.

Ba/F3-FLT3-ITD cells = test: Immunoblot of FLT3 / Beclin-1 in Ba/F3-FLT3-ITD cells; format: cell-based, murine; details: immunoblot; Ba/F3-FLT3-ITD cells
Source text: The following antibodies were purchased from Cell Signaling Technology (Danvers, Mass.): total AKT (rabbit, #9272) and total p44/42 MAPK (Erk1/2) (3A7) (mouse, #9107) were used at 1:1000 dilution. Anti-GAPDH (D16H-11) XP (R) (rabbit mAb, #5174) was used at 1:1000 dilution. Beclin-1 (rabbit, #3738) was used at 1:1000. USP10 (D7A5) (rabbit, #8501) was used at 1:1000 dilution. P53 (rabbit, #9282) was used at 1:1000 dilution. β-tubulin (rabbit, #2146s) was used 1:1000.
FLT3/Flk-2 (C-20) (sc-479) and Ub (P4D1) (mouse, sc-8017) were purchased from Santa Cruz Biotechnology, Inc. (Dallas, Tex.) and used at 1:1000 dilution for immunoblotting. Anti-pTyr (mouse, clone 4G10) was purchased from Upstate Biotechnology (Lake Placid, N.Y.) and was used at 1:1000 dilution. Anti-HAUSP/USP7 antibody (rabbit, ab4080) and anti-ubiquitin antibody (rabbit, ab7780) were purchased from Abcam (Cambridge, Mass.) and used at 1:1000 dilution.
Protein lysate preparation, immunoblotting, and immunoprecipitation were carried out as previously described in Weisberg et al. (2002) Cancer Cell 1:433-443.

Chain of USP7 (Q93009 whole entry, the tested form may be a part): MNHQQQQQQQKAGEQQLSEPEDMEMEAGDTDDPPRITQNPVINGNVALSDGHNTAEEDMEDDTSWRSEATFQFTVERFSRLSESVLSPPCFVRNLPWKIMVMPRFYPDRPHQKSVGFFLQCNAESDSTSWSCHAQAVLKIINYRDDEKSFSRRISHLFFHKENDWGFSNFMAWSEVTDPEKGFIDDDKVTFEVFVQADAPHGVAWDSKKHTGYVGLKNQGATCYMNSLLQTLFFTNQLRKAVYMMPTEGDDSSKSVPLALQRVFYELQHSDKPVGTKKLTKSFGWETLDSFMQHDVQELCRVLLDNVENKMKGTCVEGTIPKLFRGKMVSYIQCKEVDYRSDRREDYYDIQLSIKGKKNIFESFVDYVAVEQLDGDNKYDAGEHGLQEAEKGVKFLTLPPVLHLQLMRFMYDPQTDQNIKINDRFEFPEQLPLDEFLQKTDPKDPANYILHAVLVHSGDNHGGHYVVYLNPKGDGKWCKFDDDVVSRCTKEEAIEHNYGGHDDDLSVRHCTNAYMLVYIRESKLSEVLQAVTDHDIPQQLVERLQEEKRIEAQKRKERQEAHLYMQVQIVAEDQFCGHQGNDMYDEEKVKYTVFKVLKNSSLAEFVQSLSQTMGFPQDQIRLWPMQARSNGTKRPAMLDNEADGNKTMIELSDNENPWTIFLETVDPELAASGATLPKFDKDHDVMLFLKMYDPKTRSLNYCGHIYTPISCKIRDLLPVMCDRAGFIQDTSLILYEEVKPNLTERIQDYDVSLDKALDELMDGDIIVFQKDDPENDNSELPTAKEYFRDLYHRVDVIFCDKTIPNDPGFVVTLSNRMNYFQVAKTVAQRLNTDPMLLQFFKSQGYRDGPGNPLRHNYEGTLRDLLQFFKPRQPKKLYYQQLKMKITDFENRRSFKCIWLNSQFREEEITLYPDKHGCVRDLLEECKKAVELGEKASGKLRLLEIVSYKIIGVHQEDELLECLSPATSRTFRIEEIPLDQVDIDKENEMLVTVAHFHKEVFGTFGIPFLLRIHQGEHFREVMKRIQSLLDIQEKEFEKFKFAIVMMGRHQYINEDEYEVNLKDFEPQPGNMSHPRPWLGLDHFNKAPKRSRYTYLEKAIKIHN

Compound | IC50 (USP7) | IC50 [1] | FLT3 protein levels (Ba/F3-FLT3-ITD cells)
CCN(CCCNC(=O)c1ccc2nc3c(c(Cl)c2c1)CCCC3)c1ccccc1 [C598-0468] | > 100 µM | > 100 µM | no effect on FLT3 levels
O=C(NCCc1ccc(Cl)cc1)c1ccc2nc3c(c(Cl)c2c1)CCCC3 [C598-0515] | > 100 µM |  | 
CCN(CC)S(=O)(=O)c1ccc(NC(=O)c2ccc3nc4c(c(Cl)c3c2)CCCC4)cc1 [C598-0646] | > 100 µM |  | 
